Laboratory results: patent publication EP1067939B1, “USE OF STEROIDAL ALKALOID DERIVATIVES AS INHIBITORS OF HEDGEHOG PROTEIN SIGNALING PATHWAYS” (The Johns Hopkins University, priority 1998, dated 1999)
“And” between values parts separate entries of the source, which are not always exact repeats. Identical values can stand only once.

Experiments:
[1] = test system: primary human lymphoblasts; experiment: Cholesterol Biosynthesis Assay (sterol profiles of cultured cells); assay type: cell-based; conditions: for Percent Sterols: 2. C28 Sterols / Percent Sterols: 3. C29 Sterols / Percent Sterols: Cholesterol / Percent Sterols: c. Cholesta-7,24-dien-3ß-ol / Percent Sterols: d. Zymosterol / Percent Sterols: e. Cholesta-8(14)-en-3ß-ol / Percent Sterols: f. 7 Dehydrocholesterol / Total Sterols (µg/mg protein) / Percent Sterols: h. C27 Sterol 1 (mw 384) / Percent Sterols: j. C27 Oxysterol 1 (mw 400) / Percent Sterols: k. C27 Oxysterol 2 (mw 400) / Percent Sterols: i. C27 Sterol 2 (mw 382): five days
vibrissa follicle = experiment: Vibrissa follicle explant cultures; assay type: cell-based, mouse
Experimental: Vibrissa follicle explants were established using CD- I mouse embryos at 13.5 days of gestation according to a previously described protocol (Hirai et al., 1989), with minor midifications. Vibrissa pads were transferred onto Nuclepore filters (13 mm, 8 µm pores), and floated on, 2 ml of medium [DMEM (Life Technologies. Gaithersburg, MD) + Ham's F12 medium (Life Technologies) (1:1), with 1% FCS (Intergen, Purchase. NY), penicillin (50 units/ml) and streptomycin (50 gg/ml) (Life Technologies)] in 6-well plates. […] Explants were fed fresh medium every two days. Microdissection was performed with the aid of a Nikon SMZ-2T stereomicroscope and photomicrographs were taken using an Olympus OM-4 camera. Cycloparnine was stored at -20 as a 10 mM stock in 95% EtOH.
RNA was obtained by solubilizing individual explants in TriZol (Life Sciences) and isolating as recommended by the manufacturer. cDNA was synthesized using SuperScript II Rnase H reverse transcriptase with random primers (Life Technologies), and RT-PCR performed using the following primers: MHKA1 (318 bp product), (forward 5'-[…]-3' and reverse 5'-[…]-3'); hacl-1 (308 bp product), (forward 5'-[…].3 and reverse 5'-[…]-3'); profilaggrin (330 bp product), (forward 5-[…]-3' and reverse 5'-[…]-3') (Bickenbach et al., 1995); P actin (421 bp product), (for-ward 5'-[…]-3' and reverse 5'[…]-3') (Walterhouse et al., 1993). The following PCR conditions were used for MHKA1. […]
Explants were established using vibrissa pads obtained from mice at 13.5 days of gestation (Hirai et al., 1989). […] These follicles contained hair shafts and expressed genes encoding mouse hair keratin A I (MHKA 1) (Kaytes et al., 199 1) and a hair cortex-specific marker Hacl- 1 (Huh et al., 1994), detected by RT-PCR (Fig. 11B). […] In keeping with our results obtained using Shh mutant skin, hair-specific transcripts are detected in cycloparnine-treated grafts (Fig. 11B) despite their altered development, providing further support for the notion that biochemical differentiation of the follicle is not necessarily coupled to its morphogenesis.

BMP7 = experiment: Neural plate explant response to BMP7 (migratory HNK-1 positive cells); assay type: cell-based, chick; conditions: 100 ng/ml BMP7, ventral neural plate explants
His6Hh-C = biological target: T1, His6Hh-C (Drosophila melanogaster, UniProt Q02936); experiment: In vitro Hh autoprocessing reaction with purified components; assay type: biochemical; conditions: for interference with cholesterol-stimulated autoprocessing: 12 µM cholesterol, 3 hours at 30° C, up to 27-fold excess to cholesterol; for His6Hh-C autocleavage reaction in the presence of compound without sterol: absence of cholesterol, up to 324 µM
T1 construct: made in house

Shh = biological target: T2, Shh (Mus musculus, UniProt Q62226); experiment: Shh processing in transiently-transfected COS-7 or QT6 cells; assay type: cell-based
T2 construct: expressed in transfected cells; host or cells: HK293 cells, Ecdysone-Inducible Mammalian Expression System (Invitrogen)

[2] = cultured vibrissa explants, RT-PCR

T1 sequence (Q02936 252-471): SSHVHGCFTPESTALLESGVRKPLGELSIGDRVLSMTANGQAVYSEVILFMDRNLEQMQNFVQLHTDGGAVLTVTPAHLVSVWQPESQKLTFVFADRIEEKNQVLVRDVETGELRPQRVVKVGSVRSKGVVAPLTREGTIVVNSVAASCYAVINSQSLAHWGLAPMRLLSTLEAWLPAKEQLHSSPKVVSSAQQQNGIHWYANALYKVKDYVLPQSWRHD
T2 sequence (Q62226 25-437): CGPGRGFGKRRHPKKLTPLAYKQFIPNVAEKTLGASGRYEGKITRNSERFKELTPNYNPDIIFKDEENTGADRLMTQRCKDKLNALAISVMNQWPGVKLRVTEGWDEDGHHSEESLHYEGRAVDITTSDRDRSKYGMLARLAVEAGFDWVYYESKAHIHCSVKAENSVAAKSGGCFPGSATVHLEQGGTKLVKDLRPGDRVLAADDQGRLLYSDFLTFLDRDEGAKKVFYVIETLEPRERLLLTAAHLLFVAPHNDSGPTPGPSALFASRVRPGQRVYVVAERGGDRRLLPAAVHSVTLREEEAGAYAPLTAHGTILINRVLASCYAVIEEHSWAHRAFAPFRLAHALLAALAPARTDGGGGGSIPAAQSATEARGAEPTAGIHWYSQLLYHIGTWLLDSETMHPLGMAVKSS

Row | SMILES | Percent Sterols: b. 7 Dehydrodesmosterol [1] | Percent Sterols: Cholesterol ([1]; 1.25 µM) [%] | Percent Sterols: c. Cholesta-7,24-dien-3ß-ol ([1]; 1.25 µM) [%] | Percent Sterols: e. Cholesta-8(14)-en-3ß-ol ([1]; 1.25 µM) [%] | Percent Sterols: f. 7 Dehydrocholesterol ([1]; 1.25 µM) [%] | Total Sterols (µg/mg protein) ([1]; 1.25 µM) | Percent Sterols: Cholesterol ([1]; 2.5 µM) [%] | Percent Sterols: c. Cholesta-7,24-dien-3ß-ol ([1]; 2.5 µM) [%] | Percent Sterols: e. Cholesta-8(14)-en-3ß-ol ([1]; 2.5 µM) [%] | Percent Sterols: f. 7 Dehydrocholesterol ([1]; 2.5 µM) [%] | Total Sterols (µg/mg protein) ([1]; 2.5 µM) | Percent Sterols: 2. C28 Sterols ([1]; 5.0 µM) [%] | Percent Sterols: 3. C29 Sterols ([1]; 5.0 µM) [%] | Percent Sterols: Cholesterol ([1]; 5.0 µM) [%] | Percent Sterols: c. Cholesta-7,24-dien-3ß-ol ([1]; 5.0 µM) [%] | Percent Sterols: e. Cholesta-8(14)-en-3ß-ol ([1]; 5.0 µM) [%] | Percent Sterols: f. 7 Dehydrocholesterol ([1]; 5.0 µM) [%] | Total Sterols (µg/mg protein) ([1]; 5.0 µM) | interference with cholesterol-stimulated autoprocessing (His6Hh-C) | His6Hh-C autocleavage reaction in the presence of compound without sterol (His6Hh-C) | also measured
1 | CC1=C2C[C@H]3[C@@H](CC=C4C[C@@H](O)CC[C@@]43C)[C@@H]2CC[C@]12O[C@@H]1C[C@H](C)CN[C@H]1[C@H]2C [Cyclopamine, cyclopamine] | 0.8% | 87 | 0.6 | 0.9 | 2.4 | 8.4 | 76 | 0.9 | 2.5 | 4.2 | 8.5 | 1.8 | 3.1 | 68 | 1.6 | 2.7 | 6.3 | 8.3 | does not interfere with autoprocessing | does not proceed | Percent Sterols: 2. C28 Sterols ([1]; 1.25 µM): 1.2%; Percent Sterols: 3. C29 Sterols ([1]; 1.25 µM): 0.7%; Percent Sterols: d. Zymosterol ([1]; 1.25 µM): 2.3%; Percent Sterols: 2. C28 Sterols ([1]; 2.5 µM): 1.3%; Percent Sterols: 3. C29 Sterols ([1]; 2.5 µM): 1.2%; Percent Sterols: d. Zymosterol ([1]; 2.5 µM): 4.5%; Percent Sterols: d. Zymosterol ([1]; 5.0 µM): 4.7%; late-stage follicle differentiation markers (vibrissa follicle; [2]): detected; profilaggrin mRNA (epidermal differentiation) (vibrissa follicle; [2]): accumulate profilaggrin mRNA; Morphogenesis of vibrissa follicles (vibrissa follicle; cyclopamine present in the medium for the duration of the experiment, concentration printed as I ∼M): blocked; Induction of migratory HNK-1 positive cells by BMP7 (BMP7; 10 µM): not inhibited
2 | C[C@H]1CC[C@]2(NC1)O[C@H]1C[C@H]3[C@@H]4CC[C@H]5C[C@@H](O)CC[C@]5(C)[C@H]4CC[C@]3(C)[C@H]1[C@@H]2C [Tomatidine, tomatidine] | 0.8% and 0.5% | 54 | 0.9 | 6.7 | 19 | 7.8 | 42 | 0.9 | 8.9 | 14 | 7.8 | 1.6 | 3.1 | 32 | 0.7 | 8.7 | 9.8 | 5.6 | does not interfere with autoprocessing | does not proceed | Percent Sterols: g. Lathosterol [1]: 4.9% and 4.7% and 3.6%; Percent Sterols: h. C27 Sterol 1 (mw 384) ([1]; 1.25 µM): 7.0%; Percent Sterols: j. C27 Oxysterol 1 (mw 400) ([1]; 1.25 µM): 1.0%; Percent Sterols: k. C27 Oxysterol 2 (mw 400) ([1]; 1.25 µM): 2.0%; Percent Sterols: h. C27 Sterol 1 (mw 384) ([1]; 2.5 µM): 13%; Percent Sterols: i. C27 Sterol 2 (mw 382) ([1]; 2.5 µM): 4.1%; Percent Sterols: j. C27 Oxysterol 1 (mw 400) ([1]; 2.5 µM): 2.4%; Percent Sterols: k. C27 Oxysterol 2 (mw 400) ([1]; 2.5 µM): 5.0%; Percent Sterols: h. C27 Sterol 1 (mw 384) ([1]; 5.0 µM): 20%; Percent Sterols: i. C27 Sterol 2 (mw 382) ([1]; 5.0 µM): 4.7%; Percent Sterols: j. C27 Oxysterol 1 (mw 400) ([1]; 5.0 µM): 4.5%; Percent Sterols: k. C27 Oxysterol 2 (mw 400) ([1]; 5.0 µM): 11%; Induction of migratory HNK-1 positive cells by BMP7 (BMP7; 50 µM): not inhibited; Shh processing efficiency (Shh): did not observe any effect
